Reference: patent US20240336642A1 (The General Hospital Corporation, priority 2021, published 2024)
Structures can show the parent of a compound that is named as a salt.

Biological target: h12/15-LOX (Homo sapiens (Human), UniProt P16050)
Test: 12/15-LOX enzyme inhibition IC50 assay (Examples 1 and 2)
Type: biochemical
Settings: for Emax: h12/15-LOX, read-out: Max % inhibition
Method: Enzyme was then added to the cuvettes. […] The % inhibition for each test compound concentration were calculated as follows: […]

h12/15-LOX, sequence (P16050 whole entry): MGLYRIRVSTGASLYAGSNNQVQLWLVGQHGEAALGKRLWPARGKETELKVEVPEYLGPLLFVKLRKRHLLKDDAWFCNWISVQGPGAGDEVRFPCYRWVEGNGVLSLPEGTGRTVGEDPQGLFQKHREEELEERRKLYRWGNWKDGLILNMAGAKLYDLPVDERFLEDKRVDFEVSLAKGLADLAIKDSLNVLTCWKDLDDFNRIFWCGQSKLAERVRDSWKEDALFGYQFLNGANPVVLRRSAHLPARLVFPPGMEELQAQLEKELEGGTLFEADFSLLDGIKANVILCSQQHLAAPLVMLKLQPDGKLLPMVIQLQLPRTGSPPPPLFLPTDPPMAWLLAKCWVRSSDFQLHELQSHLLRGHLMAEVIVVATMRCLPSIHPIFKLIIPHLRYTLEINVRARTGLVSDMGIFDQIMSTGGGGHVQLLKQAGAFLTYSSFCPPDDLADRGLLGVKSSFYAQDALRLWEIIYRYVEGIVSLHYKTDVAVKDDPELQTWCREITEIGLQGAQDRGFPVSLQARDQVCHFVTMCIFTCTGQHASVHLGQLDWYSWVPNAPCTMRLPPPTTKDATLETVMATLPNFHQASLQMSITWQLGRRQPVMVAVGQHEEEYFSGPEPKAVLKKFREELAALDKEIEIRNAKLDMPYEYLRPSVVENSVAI

| IC50 | Emax | SMILES |
| --- | --- | --- |
| > 20 µM | 49% | CNc1oc(-c2ccc(Cl)c(Cl)c2Cl)nc1C#N |
| > 20 µM | 32% | CNc1oc(-c2c(Cl)ccc(Cl)c2Cl)nc1C#N |
| 0.063 µM | 85% | CNc1oc(-c2cc(Cl)cc(Cl)c2C)nc1C#N [Compound 2, 2-(3,5-Dichloro-2-methylphenyl)-5-(methylamino)oxazole-4-carbonitrile] |
| 0.33 µM | 88% | CNc1oc(-c2cc(Cl)cc(Cl)c2F)nc1C#N [Compound 3, 2-(3,5-Dichloro-2-fluorophenyl)-5-(methylamino)oxazole-4-carbonitrile] |
| – | 67% | CNc1oc(-c2cc(Cl)cc(Cl)c2OC(F)F)nc1C#N [Compound 4] |
| 0.18 µM | 92% | CNc1oc(-c2cc(Cl)cc(Cl)c2OC)nc1C#N [Compound 5, 2-(3,5-Dichloro-2-methoxyphenyl)-5-(methylamino)oxazole-4-carbonitrile] |
| 0.18 µM | 99% | CNc1oc(-c2cc(Cl)cc(C)c2Cl)nc1C#N [Compound 6, 2-(2,5-Dichloro-3-methylphenyl)-5-(methylamino)oxazole-4-carbonitrile] |
| > 20 µM | 37% | CNc1oc(-c2cc(Cl)cc(F)c2Cl)nc1C#N [Compound 7] |
| 0.081 µM | 94% | CNc1oc(-c2cc(Cl)cc(C(F)(F)F)c2Cl)nc1C#N [Compound 8, 2-(2,5-Dichloro-3-(trifluoromethyl)phenyl)-5-(methylamino)oxazole-4-carbonitrile] |
| – | 71% | CNc1oc(-c2cc(Cl)cc(OC)c2Cl)nc1C#N [Compound 9] |
| 0.38 µM | 80% | CNc1oc(-c2cc(C)cc(Cl)c2Cl)nc1C#N [Compound 10, 2-(2,3-Dichloro-5-methylphenyl)-5-(methylamino)oxazole-4-carbonitrile] |
| 0.87 µM | 93% | CNc1oc(-c2cc(F)cc(Cl)c2Cl)nc1C#N [Compound 11, 2-(2,3-Dichloro-5-fluorophenyl)-5-(methylamino)oxazole-4-carbonitrile] |
| > 20 µM | 41% | CNc1oc(-c2cc(C(F)(F)F)cc(Cl)c2Cl)nc1C#N [Compound 12, 2-(2,3-Dichloro-5-(trifluoromethyl)phenyl)-5-(methylamino)oxazole-4-carbonitrile] |
| 1.1 µM | 100% | CNc1oc(-c2cc(C#N)cc(Cl)c2Cl)nc1C#N [Compound 13, 2-(2,3-Dichloro-5-cyanophenyl)-5-(methylamino)oxazole-4-carbonitrile] |
| 0.11 µM | 88% | C=CCNc1oc(-c2cc(Cl)cc(Cl)c2Cl)nc1C#N [Compound 14, 5-(allylamino)-2-(2,3,5-trichlorophenyl)oxazole-4-carbonitrile] |
| 0.17 µM | 92% | C/C=C/CNc1oc(-c2cc(Cl)cc(Cl)c2Cl)nc1C#N [Compound 15, (E)-5-(But-2-en-1-ylamino)-2-(2,3,5-trichlorophenyl)oxazole-4-carbonitrile] |
| 2 µM | 90% | N#Cc1nc(-c2cc(Cl)cc(Cl)c2OC(F)F)oc1NCCCCO [Compound 18, 2-(3,5-Dichloro-2-(difluoromethoxy)phenyl)-5-((4-hydroxybutyl)amino)oxazole-4-carbonitrile] |
| 0.46 µM | 68% | Cc1c(Cl)cc(Cl)cc1-c1nc(C#N)c(NCCCCO)o1 [Compound 19, 2-(3,5-Dichloro-2-methylpheny1)-5-((4-hydroxybutyl)amino)oxazole-4-carbonitrile] |
| 1.5 µM | 97% | N#Cc1nc(-c2cc(Cl)cc(C(F)(F)F)c2Cl)oc1NCCCCO [Compound 20, 2-(2,5-Dichloro-3-(trifluoromethyl)phenyl)-5-((4-hydroxybutyl)amino)oxazole-4-carbonitrile] |
| 8 µM | 86% | Cc1cc(Cl)c(Cl)c(-c2nc(C#N)c(NCCCCO)o2)c1 [Compound 21, 2-(2,3-Dichloro-5-methylphenyl)-5-((4-hydroxybutyl)amino)oxazole-4-carbonitrile] |
| 2 µM | 97% | N#Cc1nc(-c2cc(Cl)cc(Cl)c2OC(F)F)oc1NCCCCCO [Compound 23, 2-(3,5-Dichloro-2-(difluoromethoxy)phenyl)-5-((5-hydroxypentyl)amino)oxazole-4-carbonitrile] |
| 0.32 µM | 80% | Cc1c(Cl)cc(Cl)cc1-c1nc(C#N)c(NCCCCCO)o1 [Compound 24, 2-(3,5-Dichloro-2-methylphenyl)-5-((5-hydroxypentyl)amino)oxazole-4-carbonitrile] |
| – | 38% | N#Cc1nc(-c2cc(Cl)cc(Cl)c2F)oc1NCCCCCO [Compound 25] |

| IC50 | Emax | SMILES |
| --- | --- | --- |
| 0.8 µM | 100% | Cc1cc(Cl)cc(-c2nc(C#N)c(NCCCCCO)o2)c1Cl [Compound 26, 2-(2,5-Dichloro-3-methylphenyl)-5-((5-hydroxypentyl)amino)oxazole-4-carbonitrile] |
| 0.55 µM | 70% | N#Cc1nc(-c2cc(Cl)cc(C(F)(F)F)c2Cl)oc1NCCCCCO [Compound 27, 2-(2,5-Dichloro-3-(trifluoromethyl)phenyl)-5-((5-hydroxypentyl)amino)oxazole-4-carbonitrile] |
| 3 µM | 100% | N#Cc1nc(-c2cc(Cl)cc(Cl)c2OC(F)F)oc1NCCOCCO [Compound 29, 2-(3,5-Dichloro-2-(difluoromethoxy)phenyl)-5-((2-(2-hydroxyethoxy)ethyl)amino)oxazole-4-carbonitrile] |
| – | 100% | Cc1c(Cl)cc(Cl)cc1-c1nc(C#N)c(NCCOCCO)o1 [Compound 30] |
| 2.4 µM | 99% | N#Cc1nc(-c2cc(Cl)cc(C(F)(F)F)c2Cl)oc1NCCOCCO [Compound 31, 2-(2,5-Dichloro-3-(trifluoromethyl)phenyl)-5-((2-(2-hydroxyethoxy)ethyl)amino)oxazole-4-carbonitrile] |
| 0.65 µM | 100% | COCCOCCNc1oc(-c2cc(Cl)cc(Cl)c2OC(F)F)nc1C#N [Compound 33, 2-(3,5-Dichloro-2-(difluoromethoxy)phenyl)-5-((2-(2-methoxyethoxy)ethyl)amino)oxazole-4-carbonitrile] |
| – | 100% | COCCOCCNc1oc(-c2cc(Cl)cc(Cl)c2C)nc1C#N [Compound 34] |
| 3 µM | 100% | COCCOCCNc1oc(-c2cc(Cl)cc(Cl)c2F)nc1C#N [Compound 35, 2-(3,5-Dichloro-2-fluorophenyl)-5-((2-(2-methoxyethoxy)ethyl)amino)oxazole-4-carbonitrile] |
| 1.1 µM | 100% | COCCOCCNc1oc(-c2cc(Cl)cc(C)c2Cl)nc1C#N [Compound 36, 2-(2,5-Dichloro-3-methylphenyl)-5-((2-(2-methoxyethoxy)ethyl)amino)oxazole-4-carbonitrile] |
| 1.8 µM | 96% | COCCOCCNc1oc(-c2cc(Cl)cc(C(F)(F)F)c2Cl)nc1C#N [Compound 37, 2-(2,5-Dichloro-3-(trifluoromethyl)phenyl)-5-((2-(2-methoxyethoxy)ethyl)amino)oxazole-4-carbonitrile] |
| 6.6 µM | 100% | COCCOCCNc1oc(-c2cc(C)cc(Cl)c2Cl)nc1C#N [Compound 38, 2-(2,3-Dichloro-5-methylphenyl)-5-((2-(2-methoxyethoxy)ethyl)amino)oxazole-4-carbonitrile] |
| 0.29 µM | 94% | COCCNc1oc(-c2cc(Cl)cc(Cl)c2OC(F)F)nc1C#N [Compound 40, 2-(3,5-Dichloro-2-(difluoromethoxy)phenyl)-5-((2-methoxyethyl)amino)oxazole-4-carbonitrile] |
| 0.17 µM | 89% | COCCNc1oc(-c2cc(Cl)cc(Cl)c2C)nc1C#N [Compound 41, 2-(3,5-Dichloro-2-methylphenyl)-5-((2-methoxyethyl)amino)oxazole-4-carbonitrile] |
| 0.35 µM | 75% | COCCNc1oc(-c2cc(Cl)cc(C(F)(F)F)c2Cl)nc1C#N [Compound 42, 2-(2,5-Dichloro-3-(trifluoromethyl)phenyl)-5-((2-methoxyethyl)amino)oxazole-4-carbonitrile] |
| > 20 µM | – | CN(C(=O)CC1CCNCC1)c1oc(-c2cc(Cl)cc(Cl)c2Cl)nc1C#N [Compound 53] |
| > 20 µM | – | [2H]C([2H])([2H])N(C(=O)OCCCN(C)C)c1oc(-c2cc(Cl)cc(Cl)c2Cl)nc1C#N [Compound 54, hydrochloride] |
| > 20 µM | – | COCCOC(=O)N(C)c1oc(-c2cc(Cl)cc(Cl)c2Cl)nc1C#N [Compound 55, 2-Methoxyethyl (4-cyano-2-(2,3,5-trichlorophenyl)oxazol-5-yl)(methyl)carbamate] |
| > 20 µM | – | COCCOCCOC(=O)N(C)c1oc(-c2cc(Cl)cc(Cl)c2Cl)nc1C#N [Compound 56, 2-(2-Methoxyethoxy)ethyl (4-cyano-2-(2,3,5-trichlorophenyl)oxazol-5-yl)(methyl)carbamate] |
| > 20 µM | – | CN(C)CCCOC(=O)Nc1oc(-c2cc(Cl)cc(Cl)c2Cl)nc1C#N [Compound 57, 3-(dimethylamino) propyl (4-cyano-2-(2,3,5-trichlorophenyl)oxazol-5-yl) carbamate hydrochloride] |
| > 20 µM | – | COCCOC(=O)Nc1oc(-c2cc(Cl)cc(Cl)c2Cl)nc1C#N [Compound 58, 2-Methoxyethyl (4-cyano-2-(2,3,5-trichlorophenyl)oxazol-5-yl)carbamate] |
| > 20 µM | – | CN(C)CCOC(=O)Nc1oc(-c2cc(Cl)cc(Cl)c2Cl)nc1C#N [Compound 59, 2-(Dimethylamino)ethyl (4-cyano-2-(2,3,5-trichlorophenyl)oxazol-5-yl)carbamate hydrochloride] |
| > 20 µM | – | COCCOCCOC(=O)Nc1oc(-c2cc(Cl)cc(Cl)c2Cl)nc1C#N [Compound 60, 2-(2-Methoxyethoxy)ethyl (4-cyano-2-(2,3,5-trichlorophenyl)oxazol-5-yl)carbamate] |
